Results taken from US10368545B2, “Substituted 2-thioimidazolylcarboxamides as pesticides” (BAYER CROPSCIENCE AKTIENGESELLSCHAFT, priority 2015, dated 2019).
Read-outs that look alike come from different tables or passages of the source.

Key:
[1] = log P by HPLC on reversed-phase C18 columns (OECD Guideline 117); format: physicochemical; conditions: for logP[a]: method [a]; for logP[b]: method [b]; for chromatographic logP: reversed-phase C18 HPLC column; for log P[a]: acidic range; for log P[n]: neutral range, pH 7.8, 0.001 molar aqueous ammonium hydrogencarbonate / acetonitrile
Procedure: The log P values were determined in accordance with OECD Guideline 117 (EC Directive 92/69/EEC) by HPLC (high-performance liquid chromatography) using reversed-phase (RP) columns (C18), by the following methods:
[a] The LC-MS determination in the acidic range was carried out at pH 2.7 with 0.1% aqueous formic acid and acetonitrile (contains 0.1% formic acid) as mobile phases; linear gradient from 10% acetonitrile to 95% acetonitrile.
[b] LC-MS determination in the neutral range was carried out at pH 7.8 with 0.001 molar aqueous ammonium hydrogencarbonate solution and acetonitrile as mobile phases; linear gradient from 10% acetonitrile to 95% acetonitrile.

[2] = system: green peach aphid (Myzus persicae); experiment: Myzus persicae spray test (Chinese cabbage leaf discs); format: in vivo; conditions: application rate 500 g/ha; after 5 or 6 days; Chinese cabbage leaf discs
Procedure: Myzus persicae—Spray Test
Solvent: 78 parts by weight of acetone • • 1.5 parts by weight of dimethylformamide
Emulsifier: alkylaryl polyglycol ether
To produce a suitable active compound preparation, 1 part by weight of active compound is dissolved using the stated parts by weight of solvent and made up with water containing an emulsifier concentration of 1000 ppm until the desired concentration is attained. To produce further test concentrations, the preparation is diluted with emulsifier-containing water.
Discs of Chinese cabbage leaves (Brassica pekinensis) infested by all stages of the green peach aphid (Myzus persicae) are sprayed with an active compound preparation of the desired concentration.
After 5 or 6 days, the efficacy in % is determined. 100% means that all the aphids were killed; 0% means that no aphids were killed.

[3] = pH 2.7, 0.1% aqueous formic acid / acetonitrile
[4] = pH 2.7, acidic range, pH 2.7, 0.1% aqueous formic acid / acetonitrile, read-out: log P[a]

Row | SMILES | logP[a] [1] | logP[b] [1] | efficacy (aphids killed) [2] [%] | other results
1 | CN(C)C(=O)c1ccccc1S(=O)(=O)c1ncc(C(=O)N(C)c2cccnc2)n1C [I-A-92] | 1.12 | 1.29 | – | –
2 | CCN(C(=O)c1cnc(Sc2ncccn2)n1C)c1cccnc1 [I-A-98] | 1.04 | 1.22 | 90 | –
3 | Cc1cnc(Sc2ncc(C(=O)N(C)c3cccnc3)n2C)nc1C [I-A-103] | 1.23 | – | 100 | –
4 | CN(C(=O)c1cnc(Sc2ncccn2)n1Cc1ccccc1)c1cccnc1 [I-A-111, 1-benzyl-N-methyl-N-(pyridin-3-yl)-2-(pyrimidin-2-ylsulphanyl)-1H-imidazole-5-carboxamide] | – | – | – | chromatographic logP ([1]; pH 2.7, method [a], read-out: logP[a]): 1.73; chromatographic logP ([1]; pH 7.8, method [b], read-out: logP[b]): 1.78
5 | CN(C(=O)c1cnc(SCc2cncn2C)n1C)c1cccnc1 [I-A-114] | 0.20 | 0.85 | – | –
6 | CN(C(=O)c1cnc(SCc2ccn(C)n2)n1C)c1cccnc1 [I-A-115] | 0.76 | 1.12 | – | –
7 | CN(C(=O)c1cnc(SCc2nccn2C)n1C)c1cccnc1 [I-A-118] | – | 0.89 | – | –
8 | CN(C(=O)c1cnc(SCc2cccnc2)n1C)c1cccnc1 [I-A-119] | 0.39 | 1.15 | 90 | –
9 | CN(C(=O)c1cnc(SCc2ccco2)n1C)c1cccnc1 [I-A-120] | 1.34 | 1.55 | 90 | –
10 | CN(C(=O)c1cnc(SCc2ccc(Cl)c(Cl)c2)n1C)c1cccnc1 [I-A-121] | 2.51 | 2.62 | – | –
11 | CN(C(=O)c1cnc(SCc2c(F)cccc2F)n1C)c1cccnc1 [I-A-123] | 1.69 | 1.92 | 90 | –
12 | COc1cccc(F)c1CSc1ncc(C(=O)N(C)c2cccnc2)n1C [I-A-124] | 1.72 | 2.03 | 90 | –
13 | CN(C(=O)c1cnc(SCc2c(F)cccc2Cl)n1C)c1cccnc1 [I-A-127] | 1.89 | 2.09 | 90 | –
14 | Cc1cccc(C)c1CSc1ncc(C(=O)N(C)c2cccnc2)n1C [I-A-129] | 2.32 | 2.44 | – | –
15 | Cc1cc([N+](=O)[O-])nn1CSc1ncc(C(=O)N(C)c2cccnc2)n1C [I-A-131] | 1.28 | 1.40 | 90 | –
16 | CN(C(=O)c1cnc(SCC(=O)NC2CC2)n1C)c1cccnc1 [I-A-132] | 0.59 | 0.94 | 90 | –
17 | COC(=O)C(C)(C)NC(=O)CSc1ncc(C(=O)N(C)c2cccnc2)n1C [I-A-133] | 1.06 | 1.22 | – | –
18 | COC(=O)c1cnc(Sc2ncc(C(=O)N(C)c3cccnc3)n2C)n1C [I-A-143] | 1.12 | 1.27 | – | –
19 | Cc1cc(C)nc(Sc2ncc(C(=O)O)n2C)n1 [IV-1] | – | – | – | log P[a] [1, 3]: 0.81
20 | Cn1c(C(=O)O)cnc1SCC1CC1 [IV-2] | – | – | – | log P[a] [1, 3]: 0.62; log P[n] [1]: −0.18
21 | Cn1c(C(=O)O)cnc1Br [IX-1, 1-methyl-2-bromoimidazole-5-carboxylic acid] | – | – | – | chromatographic logP [1, 4]: 0.31
22 | COC(=O)c1cnc(Sc2nc(C)cc(C)n2)n1C [VIII-1] | – | – | – | log P[a] [1, 3]: 1.78; log P[n] [1]: 1.80
23 | COC(=O)c1cnc(SCC2CC2)n1C [VIII-2] | – | – | – | log P[a] [1, 3]: 2.06; log P[n] [1]: 2.26
24 | CN(C(=O)c1cnc(Br)n1C)c1cccnc1 [XI-1] | – | – | – | log P[a] [1, 3]: 0.65; log P[n] [1]: 0.93
25 | Cn1cc(C(=O)O)nc1Br [XIX-1, 2-bromo-1-methyl-1H-imidazole-4-carboxylic acid] | – | – | – | chromatographic logP [1, 4]: 0
26 | CN(C(=O)c1cncn1C)c1cccnc1 [XV-1] | – | – | – | log P[n] [1]: 0.42
27 | Cn1cnc(C(=O)OC(C)(C)C)c1 [XVII-1, tert-butyl 1-methyl-1H-imidazole-4-carboxylate] | – | – | – | chromatographic logP [1, 4]: 0.74
28 | Cn1cc(C(=O)OC(C)(C)C)nc1Br [XVIII-1, tert-butyl 2-bromo-1-methyl-1H-imidazole-4-carboxylate] | – | – | – | chromatographic logP [1, 4]: 1.27
29 | CN(C(=O)c1cn(C)c(Br)n1)c1cccnc1 [XXI-1] | – | – | – | log P[n] [1]: 0.76
